Results: patent US20250388571A1, “AMP-ACTIVATED PROTEIN KINASE MODULATOR COMPOUNDS AND USES THEREOF” (Biolexis Therapeutics, Inc., priority 2024, published 2025)
“Also recorded” adds a separate entry of the source.

Experiments:
[1] = system: AMPK signal pathway in C2C12 cells; assay: Western blot assay, C2C12 cells
Method: Samples for immunoblotting studies were prepared for electrophoresis by adding in a final concentration of 1× Laemmli loading buffer (supplemented with 5% 2-mercaptoethanol). Samples were then electrophorized by SDS-PAGE (4-15% or 4-20% Criterion TGX Precast gel, Bio-Rad) at a constant voltage within the range of 140V. Proteins were transferred to a nitrocellulose membrane (Bio-Rad) using the Trans-Blot Turbo transfer system (Bio-Rad). Membranes were blocked with 5% BSA in TBST for a minimum of 1 hour at room temperature before incubating with the following primary antibodies: • Phospho-AMPKα (Thr172) (40H9) Rabbit mAb (CST, cat no: 2535S), • AMPKα Antibody (CST, cat no: 2532S) • Phospho-Raptor (Ser792) Antibody (CST, cat no: 2083S) • Raptor (24C12) Rabbit mAb (CST, cat no: 2280S) • Phospho-Acetyl-CoA Carboxylase (Ser79) Antibody (CST, cat no: 3661S) • Acetyl-CoA Carboxylase Antibody (CST, cat no: 3662S) • AMPKα2 Antibody (CST, cat no: 2757S) • AMPKβ1 antibody (CST, cat no: 12063) • AMPKβ2 Antibody (CST, CST, cat no: 4148S) • AMPKγ3 Antibody (CST, cat no: 2550S). […]
After differentiation of cells (e.g., HSKM, C2C12, L6) for 5 days, medium was changed to DHEM without FBS and glucose for starving cells for 2 hours. […] The resultant reaction mixture was then assayed and semi-quantitative histogram analysis of Western Blotting (signal value) was used to determine results.

[2] = system: human cardiomyocyte cells (HCM); assay: Glucose uptake assay, human cardiomyocyte cells; format: cell-based; conditions: for AMPK activation activity (glucose uptake assay): 10 doses 100 μM to 0.005 μM
Method: FIGS. 17-19 show results for glucose update assays in human cardiomyocyte cells (“HCM”-healthy donor) (Promocell, cat. no. C-12810) when treated with compound I-11 (FIG. 17), compound I-7 (FIG. 18), and PF-06409577 (FIG. 19). After recovered HCM cells for 4 days, cells were starved for 3 hours in high glucose DMEM without FBS, treated with the components noted above in DMEM without FBS/glucose for 1 hour, and glucose uptake was detected using a glucose uptake kit (Promega). […] The bars show (from left to right) concentrations of 100 μM, 33 μM, 11 μM, 3.7 μM, 1.23 μM, 0.41 μM, 0.14 μM, 0.045 μM, 0.015 μM, 0.005 μM, 0 μM, and insulin.
FIGS. 20-22 show results for glucose update assays in human cardiomyocyte cells (“HCM”-diabetic donor) (Promocell, cat. no. C-12810) when treated with compound I-11 (FIG. 20), compound I-7 (FIG. 21), and PF-06409577 (FIG. 22). After recovered HCM cells for 4 days, cells were starved for 3 hours in high glucose DMEM without FBS, treated with the components noted above in DMEM without FBS/glucose for 1 hour, and glucose uptake was detected using a glucose uptake kit (Promega). […] The bars show (from left to right) concentrations of 100 μM, 33 μM, 11 μM, 3.7 μM, 1.23 μM, 0.41 μM, 0.14 μM, 0.045 μM, 0.015 μM, 0.005 μM, 0 μM, and insulin.
Human skeletal myoblasts were obtained (Thermofisher; BYU) and cultured in DMEM/F12 medium with 10% FBS. For differentiation, 2% horse serum low glucose DMEM medium was employed for 72 hours. Human cardiomyocytes cells (HCM cells; Promocell) were cultured in myocyte growth medium (Promocell). Human preadipocyte HWP-c cells (Promocell) were obtained from upper arm of diabetic II donor. Human preadipocyte HWP-c cells (Promocell) were obtained from abdomen of diabetic II donor. For differentiating human preadipocytes, cells were cultured in preadipocyte growth medium to total confluency stage. The growth medium was replaced with preadipocyte differentiation medium for 72 hours, then changed to PromoCell adipocyte nutrition medium to complete the differentiation process. THLE-2 cells were cultured in BEGM from Lonza/Clonetics Corporation, Walkersville, MD 21793 (BEGM Bullet Kit; CC3170). HepG2, L6 and C2Cl2 cells were cultured in EMEM medium.
After differentiation myoblasts, preadipocyte cells were starved by removing the medium and adding 100 μL DMEM without serum. The medium was then replaced with 100 μL DMEM±1 μM insulin at indicated concentration of representative compounds without serum or glucose. The cells were then incubated for 1 hour at 37° C. in 5% CO2. The cells were then removed from the medium and 50 μL of 0.1 mM 2DG in PBS was added. Cells were incubated for 30 minutes at 25° C. 25 μL of Stop Buffer was added and samples were mixed. 25 μL of Neutralization Buffer was then added and mixed. 100 μL of 2DG6P Detection Reagent was then added and mixed. Samples were then incubated for 1 hour at 25° C. Luminescence was then recorded with 0.3-1 second integration on a luminometer.

SMILES: O=c1[nH]c(-c2c[nH]c3cc(F)c(-c4ccc(C5(O)CCC5)cc4)c(F)c23)no1 [Compound I-11, 3-(4,6-difluoro-5-(4-(1-hydroxycyclobutyl)phenyl)-1H-indol-3-yl)-1,2,4-oxadiazol-5(4H)-one]
- pAMPK/pACC/AMPKα2β1β2γ3 expression [1]: also induce
- AMPK activation activity (glucose uptake assay) ([2]; diabetic donor): did not show AMPK activation activity
- glucose uptake ([2]; donor not stated): did not induce glucose uptake in dose-dependent manner; also recorded: did not activate glucose uptake
- AMPK activation activity (glucose uptake assay) ([2]; healthy donor): did not show AMPK activation activity
